This note sets out measurements from patent publication US20190263796A1, “LIM KINASE INHIBITORS, PHARMACEUTICAL COMPOSITION AND METHOD OF USE IN LIMK-MEDIATED DISEASES” (CELLIPSE, priority 2016, published 2019).

Test [1] addresses T1, BTK(h) (Homo sapiens, UniProt Q06187).
T1 construct: purchased Merck-Millipore (KinaseProfiler panel service)
In words: KinaseProfiler panel: BTK(h). It counts as biochemical. The note with it: residual activity, 5 μM inhibitor, Km ATP. The protocol: (§1) Kinase selectivity was performed on a panel of 58 recombinant protein kinases. The assays were performed in the presence of 5 μM inhibitor at the respective Km ATP for each kinase, using the KinaseProfiler panel service (Merck-Millipore). Residual activity measured in the presence of […] inhibitor is expressed as the percent of activity determined in the absence of inhibitor.

In test [2] the target is T2, TrkA(h) (Homo sapiens, UniProt P04629).
T2 construct: purchased Merck-Millipore (KinaseProfiler panel service)
In words: KinaseProfiler panel: TrkA(h). It counts as biochemical. Conditions: residual activity, 5 μM inhibitor, Km ATP. The protocol:
as §1

Test [3] addresses T3, TAK1(h) (Homo sapiens, UniProt O43318).
T3 construct: purchased Merck-Millipore (KinaseProfiler panel service)
The test is described as follows: KinaseProfiler panel: TAK1(h). The format is biochemical. The note with it: residual activity, 5 μM inhibitor, Km ATP. The protocol:
as §1

The target of test [4] is T4, KDR(h) (Homo sapiens, UniProt P35968).
T4 construct: purchased Merck-Millipore (KinaseProfiler panel service)
In words: KinaseProfiler panel: KDR(h). The format is biochemical. Conditions: residual activity, 5 μM inhibitor, Km ATP. The protocol:
as §1

Test [5] addresses B-Raf(h) (Homo sapiens, UniProt P15056). In words: KinaseProfiler panel: B-Raf(h). The format is biochemical. Also on record: purchased Merck-Millipore (KinaseProfiler panel service). Conditions: residual activity, 5 μM inhibitor, Km ATP. Here is the method:
as §1

Test [6] has as its target T5, PAK5(h) (Homo sapiens, UniProt Q9P286).
T5 construct: purchased Merck-Millipore (KinaseProfiler panel service)
In words: KinaseProfiler panel: PAK5(h). The note with it: residual activity, 5 μM inhibitor, Km ATP. It counts as biochemical. Here is the method:
as §1

Test [7] deals with T6, PAK6(h) (Homo sapiens, UniProt Q9NQU5).
T6 construct: purchased Merck-Millipore (KinaseProfiler panel service)
In words: KinaseProfiler panel: PAK6(h). The format is biochemical. The note with it: residual activity, 5 μM inhibitor, Km ATP. The protocol:
as §1

In test [8] the target is T7, IR(h), activated (Homo sapiens, UniProt P06213).
T7 construct: purchased Merck-Millipore (KinaseProfiler panel service)
In words: KinaseProfiler panel: IR(h), activated. The format is biochemical. The note with it: residual activity, 5 μM inhibitor, Km ATP. The protocol: as §1

Test [9] addresses T8, ALK(h) (Homo sapiens, UniProt Q9UM73).
T8 construct: purchased Merck-Millipore (KinaseProfiler panel service)
The test is described as follows: KinaseProfiler panel: ALK(h). Conditions: residual activity, 5 μM inhibitor, Km ATP. The format is biochemical. Here is the method:
as §1

Test [10] concerns the target T9, Plk1(h) (Homo sapiens, UniProt P53350).
T9 construct: purchased Merck-Millipore (KinaseProfiler panel service)
The test is described as follows: KinaseProfiler panel: Plk1(h). It counts as biochemical. Conditions: residual activity, 5 μM inhibitor, Km ATP. The protocol:
as §1

Test [11] concerns the target T10, Ret(h) (Homo sapiens, UniProt P07949).
T10 construct: purchased Merck-Millipore (KinaseProfiler panel service)
The test is described as follows: KinaseProfiler panel: Ret(h). The note with it: residual activity, 5 μM inhibitor, Km ATP. It counts as biochemical. The protocol: as §1

For test [12], the target named is T11, AMPKα1(h) (Homo sapiens, UniProt Q13131).
T11 construct: purchased Merck-Millipore (KinaseProfiler panel service)
In words: KinaseProfiler panel: AMPKα1(h). The format is biochemical. The note with it: residual activity, 5 μM inhibitor, Km ATP. The protocol: as §1

For test [13], the target named is T12, PKBα(h) (Homo sapiens, UniProt P31749).
T12 construct: purchased Merck-Millipore (KinaseProfiler panel service)
The test is described as follows: KinaseProfiler panel: PKBα(h). It counts as biochemical. The note with it: residual activity, 5 μM inhibitor, Km ATP. The protocol: as §1

For test [14], the system named is Phospho-Ser3-Cofilin/Total Cofilin. In words: Western blot of cellular cofilin phosphorylation status, MV4-11 (II.4). The format is cell-based. Conditions: Homo sapiens; MV4-11 cells; 2 h treatment. Here is the method: MV4-11 cell line was originally purchased from the American Type Culture Collection (ATCC). MV4-11 cells are cultured in RPMI 1640 10% (v/v) FBS supplemented with 100 U/mL^−1 penicillin, 0.1 mg·mL^−1 streptomycin (PAN Biotech P06-07100) and 2 mM Glutamine (Sigma-Aldrich 59202C). Cells were maintained at 37° C. with 5% CO2.
In a 6 wells plate (Falcon 353046), 2·10^6 cells in 1.5 mL medium are treated for 2 h with compounds. Cells are then collected and cell lysis is performed at 4° C. using RIPA buffer supplemented with protease inhibitors cocktail (Sigma-Aldrich P8340) and phosphatase inhibitors cocktail (Sigma-Aldrich P5726). Following centrifugation 30 min 15000 g 4° C., supernatants are mixed with Laemmli buffer and denaturation is performed by heating 5 min 95° C. 10 μL of samples are subjected to electrophoresis on 15% SDS-PAGE. After electro-transfer (Mini Transblot, Bio-Rad), the PVDF membrane (Merck-Millipore Immobilon P IPVH00010) is blocked with Tris Buffered Saline, pH 7.4 (TBS) with 0.1% Tween 20 and 5% BSA for 1 h RT under agitation. The membrane was rinsed 3 times 10 min RT under agitation with TBS, 0.1% Tween-20 (TBST) and then 1 h RT with anti-phospho-Ser3-cofilin (Cell Signaling Technology #3313, 1/1000 dilution) antibody or anti-cofilin (Cell Signaling Technology #3312, 1/1000 dilution) diluted in TBS, 0.1% Tween 20 and 1% BSA. The membrane is then rinsed 3 times 10 min RT under agitation in TBST and incubated for 1 hour with anti-rabbit secondary antibody, horseradish peroxidase conjugated (Jackson Immunoresearch #711-036-152) under agitation at room temperature. After three washes 10 min RT in TBST, the detection of total or phosphorylated cofilin was performed using chemiluminescence kit ECL™ Plus (GE Healthcare RPN2132). For each concentration of compound, ratio between phosphorylated cofilin and total cofilin is determined. This ratio is then expressed as percentage of control ratio (i.e ratio from DMSO treated cells). IC50 is then determined.
In general terms: A western blot detects proteins with antibodies after separation by electrophoresis.

In test [15] the target is T13, cKit(D816H)(h) (Homo sapiens, UniProt P10721, D816H).
T13 construct: purchased Merck-Millipore (KinaseProfiler panel service)
In words: KinaseProfiler panel: cKit(D816H)(h). It counts as biochemical. The note with it: residual activity, 5 μM inhibitor, Km ATP. Here is the method: as §1

Test [16] concerns the target T14, ROCK-II(h) (Homo sapiens, UniProt O75116).
T14 construct: purchased Merck-Millipore (KinaseProfiler panel service)
The test is described as follows: KinaseProfiler panel: ROCK-II(h). It counts as biochemical. Conditions: residual activity, 5 μM inhibitor, Km ATP. The protocol:
as §1

Test [17] concerns the target T15, Flt3(h) (Homo sapiens, UniProt P36888).
T15 construct: purchased Merck-Millipore (KinaseProfiler panel service)
The test is described as follows: KinaseProfiler panel: Flt3(h). The note with it: residual activity, 5 μM inhibitor, Km ATP. The format is biochemical. The protocol:
as §1

Test [18] concerns the target T16, PAK3(h) (Homo sapiens, UniProt O75914).
T16 construct: purchased Merck-Millipore (KinaseProfiler panel service)
The test is described as follows: KinaseProfiler panel: PAK3(h). The format is biochemical. The note with it: residual activity, 5 μM inhibitor, Km ATP. Here is the method:
as §1

The target of test [19] is T17, SAPK2a(h) (Homo sapiens, UniProt Q16539).
T17 construct: purchased Merck-Millipore (KinaseProfiler panel service)
The test is described as follows: KinaseProfiler panel: SAPK2a(h). The format is biochemical. The note with it: residual activity, 5 μM inhibitor, Km ATP. The protocol:
as §1

Test [20] concerns the target T18, c-RAF(h) (Homo sapiens, UniProt P04049).
T18 construct: purchased Merck-Millipore (KinaseProfiler panel service)
The test is described as follows: KinaseProfiler panel: c-RAF(h). The format is biochemical. Conditions: residual activity, 5 μM inhibitor, Km ATP. Here is the method:
as §1

The target of test [21] is T19, FGFR1(h) (Homo sapiens, UniProt P11362).
T19 construct: purchased Merck-Millipore (KinaseProfiler panel service)
The test is described as follows: KinaseProfiler panel: FGFR1(h). The format is biochemical. Conditions: residual activity, 5 μM inhibitor, Km ATP. Here is the method: as §1

Test [22] deals with T20, Abl(h) (Homo sapiens, UniProt P00519).
T20 construct: purchased Merck-Millipore (KinaseProfiler panel service)
The test is described as follows: KinaseProfiler panel: Abl(h). It counts as biochemical. The note with it: residual activity, 5 μM inhibitor, Km ATP. Here is the method: as §1

What is called IC50 is the point on the concentration scale where inhibition reaches its midpoint. Low readings indicate higher potency, high ones lower potency.

T3 sequence (O43318 1-303 limits assumed): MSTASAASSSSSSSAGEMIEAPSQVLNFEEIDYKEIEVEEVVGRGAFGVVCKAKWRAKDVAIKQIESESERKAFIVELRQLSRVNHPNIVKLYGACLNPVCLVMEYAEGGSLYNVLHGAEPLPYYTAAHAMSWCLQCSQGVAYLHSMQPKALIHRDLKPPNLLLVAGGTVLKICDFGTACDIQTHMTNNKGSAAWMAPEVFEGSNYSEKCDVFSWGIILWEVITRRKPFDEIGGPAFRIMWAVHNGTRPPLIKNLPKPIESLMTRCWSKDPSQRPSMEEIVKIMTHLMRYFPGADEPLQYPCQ
T6 sequence (Q9NQU5 whole entry): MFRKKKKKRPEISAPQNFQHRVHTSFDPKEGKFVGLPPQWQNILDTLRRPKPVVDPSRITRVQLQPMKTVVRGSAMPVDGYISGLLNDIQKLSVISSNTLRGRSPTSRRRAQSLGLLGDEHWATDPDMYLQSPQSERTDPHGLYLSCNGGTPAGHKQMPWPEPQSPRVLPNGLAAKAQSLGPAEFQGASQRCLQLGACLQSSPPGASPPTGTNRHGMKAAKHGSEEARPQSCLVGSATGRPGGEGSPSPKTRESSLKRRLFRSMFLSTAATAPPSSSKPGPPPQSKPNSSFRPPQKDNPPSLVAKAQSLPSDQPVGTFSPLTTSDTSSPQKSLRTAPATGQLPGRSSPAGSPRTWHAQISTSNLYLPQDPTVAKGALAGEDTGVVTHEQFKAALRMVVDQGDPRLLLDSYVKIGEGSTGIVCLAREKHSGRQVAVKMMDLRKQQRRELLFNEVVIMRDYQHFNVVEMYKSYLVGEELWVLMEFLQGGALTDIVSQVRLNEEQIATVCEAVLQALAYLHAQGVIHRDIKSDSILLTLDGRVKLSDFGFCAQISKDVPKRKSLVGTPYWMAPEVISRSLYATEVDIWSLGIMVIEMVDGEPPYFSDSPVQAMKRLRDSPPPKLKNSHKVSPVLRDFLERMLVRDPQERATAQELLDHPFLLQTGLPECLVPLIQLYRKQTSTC
T9 sequence (P53350 whole entry): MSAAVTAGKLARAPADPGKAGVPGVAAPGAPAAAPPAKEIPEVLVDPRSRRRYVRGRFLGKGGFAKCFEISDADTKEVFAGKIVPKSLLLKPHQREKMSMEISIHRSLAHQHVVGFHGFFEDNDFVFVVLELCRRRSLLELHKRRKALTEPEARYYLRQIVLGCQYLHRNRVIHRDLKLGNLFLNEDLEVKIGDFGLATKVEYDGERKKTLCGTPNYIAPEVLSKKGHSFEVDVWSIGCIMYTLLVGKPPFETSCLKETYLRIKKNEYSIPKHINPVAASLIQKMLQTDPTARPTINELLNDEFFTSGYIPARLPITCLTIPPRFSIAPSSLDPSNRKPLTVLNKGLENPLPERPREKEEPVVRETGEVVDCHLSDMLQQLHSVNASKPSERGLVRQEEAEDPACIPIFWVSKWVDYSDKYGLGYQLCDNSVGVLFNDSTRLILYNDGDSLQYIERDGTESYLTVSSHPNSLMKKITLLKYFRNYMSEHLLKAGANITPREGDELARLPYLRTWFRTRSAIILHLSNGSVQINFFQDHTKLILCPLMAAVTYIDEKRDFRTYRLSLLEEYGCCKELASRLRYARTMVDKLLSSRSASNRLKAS
T8 sequence (Q9UM73 19-1620): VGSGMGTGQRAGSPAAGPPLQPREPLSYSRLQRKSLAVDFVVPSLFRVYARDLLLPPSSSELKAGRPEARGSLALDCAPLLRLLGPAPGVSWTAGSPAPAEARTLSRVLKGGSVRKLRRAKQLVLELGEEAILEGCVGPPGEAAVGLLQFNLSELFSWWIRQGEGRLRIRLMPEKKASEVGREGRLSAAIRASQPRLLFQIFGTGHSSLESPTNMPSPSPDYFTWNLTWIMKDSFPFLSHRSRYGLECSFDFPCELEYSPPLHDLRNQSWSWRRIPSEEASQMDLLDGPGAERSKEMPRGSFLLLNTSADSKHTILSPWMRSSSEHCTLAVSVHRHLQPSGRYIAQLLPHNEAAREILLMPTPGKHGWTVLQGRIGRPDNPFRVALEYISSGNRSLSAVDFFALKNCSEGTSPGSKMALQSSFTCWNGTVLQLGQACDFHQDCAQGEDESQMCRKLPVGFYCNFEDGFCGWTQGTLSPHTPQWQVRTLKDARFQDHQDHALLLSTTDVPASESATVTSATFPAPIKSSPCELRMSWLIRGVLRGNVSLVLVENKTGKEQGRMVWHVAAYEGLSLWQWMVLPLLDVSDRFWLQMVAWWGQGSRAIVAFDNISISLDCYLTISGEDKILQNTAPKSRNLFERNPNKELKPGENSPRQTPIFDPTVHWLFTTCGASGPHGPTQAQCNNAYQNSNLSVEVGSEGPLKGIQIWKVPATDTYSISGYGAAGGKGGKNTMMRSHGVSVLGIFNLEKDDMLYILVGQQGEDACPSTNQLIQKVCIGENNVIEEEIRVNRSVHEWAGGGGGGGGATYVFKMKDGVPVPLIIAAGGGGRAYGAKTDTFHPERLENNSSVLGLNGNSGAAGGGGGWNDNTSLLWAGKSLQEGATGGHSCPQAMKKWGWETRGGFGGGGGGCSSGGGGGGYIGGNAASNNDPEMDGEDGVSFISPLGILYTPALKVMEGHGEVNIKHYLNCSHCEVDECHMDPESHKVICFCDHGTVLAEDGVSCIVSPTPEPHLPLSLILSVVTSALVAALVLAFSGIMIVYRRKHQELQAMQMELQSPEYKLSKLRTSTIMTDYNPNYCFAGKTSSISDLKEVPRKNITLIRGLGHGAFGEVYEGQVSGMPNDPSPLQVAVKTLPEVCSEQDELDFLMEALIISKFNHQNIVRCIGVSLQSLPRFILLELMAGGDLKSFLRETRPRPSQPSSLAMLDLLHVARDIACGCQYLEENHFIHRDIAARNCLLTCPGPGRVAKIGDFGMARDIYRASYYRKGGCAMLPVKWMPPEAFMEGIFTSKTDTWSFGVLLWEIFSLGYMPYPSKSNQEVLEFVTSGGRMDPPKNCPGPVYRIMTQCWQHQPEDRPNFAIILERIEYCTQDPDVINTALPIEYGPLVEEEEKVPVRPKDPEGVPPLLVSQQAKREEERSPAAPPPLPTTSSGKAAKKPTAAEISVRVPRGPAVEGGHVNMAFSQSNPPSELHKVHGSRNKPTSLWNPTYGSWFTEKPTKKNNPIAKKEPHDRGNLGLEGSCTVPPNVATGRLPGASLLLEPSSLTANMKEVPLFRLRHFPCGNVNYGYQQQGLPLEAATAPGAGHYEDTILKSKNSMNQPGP
T19 sequence (P11362 22-822): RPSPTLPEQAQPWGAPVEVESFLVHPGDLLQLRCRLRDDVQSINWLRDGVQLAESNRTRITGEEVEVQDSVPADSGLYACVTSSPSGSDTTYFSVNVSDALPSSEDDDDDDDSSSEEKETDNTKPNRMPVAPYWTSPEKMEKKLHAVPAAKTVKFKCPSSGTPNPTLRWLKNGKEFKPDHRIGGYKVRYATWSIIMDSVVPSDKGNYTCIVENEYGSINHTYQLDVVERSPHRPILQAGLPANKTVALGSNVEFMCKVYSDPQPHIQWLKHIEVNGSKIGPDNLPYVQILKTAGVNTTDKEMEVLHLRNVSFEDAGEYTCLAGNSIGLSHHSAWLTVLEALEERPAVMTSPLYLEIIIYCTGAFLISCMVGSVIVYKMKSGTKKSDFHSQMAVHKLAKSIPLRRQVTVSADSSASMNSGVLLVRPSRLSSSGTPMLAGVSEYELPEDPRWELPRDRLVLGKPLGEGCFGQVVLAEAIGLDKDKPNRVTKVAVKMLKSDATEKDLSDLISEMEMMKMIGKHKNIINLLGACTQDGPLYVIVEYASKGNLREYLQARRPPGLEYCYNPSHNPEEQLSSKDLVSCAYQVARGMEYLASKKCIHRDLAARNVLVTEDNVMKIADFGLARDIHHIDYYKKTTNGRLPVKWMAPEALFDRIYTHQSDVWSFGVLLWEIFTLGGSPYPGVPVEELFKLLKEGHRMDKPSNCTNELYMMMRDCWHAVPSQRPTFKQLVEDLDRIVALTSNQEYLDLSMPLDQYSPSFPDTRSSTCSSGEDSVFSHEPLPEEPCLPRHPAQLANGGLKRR
T15 sequence (P36888 27-993): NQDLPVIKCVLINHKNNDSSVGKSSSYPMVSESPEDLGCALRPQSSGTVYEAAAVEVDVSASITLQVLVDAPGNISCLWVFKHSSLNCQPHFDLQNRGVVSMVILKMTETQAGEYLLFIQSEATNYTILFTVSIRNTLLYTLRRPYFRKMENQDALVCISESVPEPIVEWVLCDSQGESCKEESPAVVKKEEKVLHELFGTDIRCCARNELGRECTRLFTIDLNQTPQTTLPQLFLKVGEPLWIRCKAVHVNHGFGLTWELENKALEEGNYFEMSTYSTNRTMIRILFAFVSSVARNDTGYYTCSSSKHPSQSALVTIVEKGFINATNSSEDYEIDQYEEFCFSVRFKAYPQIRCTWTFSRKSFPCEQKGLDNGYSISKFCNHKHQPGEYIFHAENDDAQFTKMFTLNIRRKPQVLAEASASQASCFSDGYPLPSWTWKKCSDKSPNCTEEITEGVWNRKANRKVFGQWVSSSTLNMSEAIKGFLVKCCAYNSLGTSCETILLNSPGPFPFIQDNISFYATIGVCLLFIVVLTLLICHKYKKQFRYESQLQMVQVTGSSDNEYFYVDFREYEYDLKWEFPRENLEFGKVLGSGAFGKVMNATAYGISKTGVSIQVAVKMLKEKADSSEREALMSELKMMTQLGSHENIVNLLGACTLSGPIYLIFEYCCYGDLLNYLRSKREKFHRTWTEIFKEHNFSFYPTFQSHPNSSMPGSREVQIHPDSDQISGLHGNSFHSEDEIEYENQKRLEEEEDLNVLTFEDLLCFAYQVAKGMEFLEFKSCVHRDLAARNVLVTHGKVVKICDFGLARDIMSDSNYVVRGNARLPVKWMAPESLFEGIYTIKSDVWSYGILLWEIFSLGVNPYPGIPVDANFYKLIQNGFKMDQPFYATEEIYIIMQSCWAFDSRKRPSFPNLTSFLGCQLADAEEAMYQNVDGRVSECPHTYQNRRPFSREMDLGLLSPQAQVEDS

Consider `CC(C)(C)c1nc(-c2cccc(NS(=O)(=O)c3c(F)cccc3F)c2F)c(-c2ccnc(Nc3ccccc3)n2)s1` [Compound 1, N-(3-(2-(tert-butyl)-5-(2-(phenylamino)pyrimidin-4-yl)thiazol-4-yl)-2-fluorophenyl)-2,6-difluorobenzenesulfonamide], for which the activity at 5 µM in test [1] is 10 to 50%; in test [2], 10 to 50%; in [3] it was no less than 50%; in [4], 10 to 50%; in [5] it was 3 to 10%; in test [6] it was no less than 50%. In addition, the activity at 5 µM was no less than 50% in test [7]; no less than 50% in [8]; no less than 50% in [9]; no less than 50% in test [10]; 10 to 50% in [11]; no less than 50% in test [12]. The activity at 5 µM in test [13] is no less than 50%; in [15], 10 to 50%; in test [16] it was no less than 50%; in test [17], no less than 50%; in test [18], no less than 50%; in test [19], no less than 50%. The activity at 5 µM in [20] was 3 to 10%; in test [21] it was no less than 50%; in test [22] it was no less than 50%. Also, the IC50 in test [14] is less than 200 nM.
